Laboratory results from PMC8647151, “PLK1‐dependent phosphorylation restrains EBNA2 activity and lymphomagenesis in EBV‐infected mice” (EMBO Reports, 2021).
Values joined by “and” are separate entries in the source; they are usually repeats but may differ in a detail not shown here. Identical values can stand only once. Where a SMILES comes first, the peptide text is derived from it. [ ]: non-standard residue; d: D form. pS = N[C@@H](COP(=O)(O)O)C(=O)O

Assays:
[1] = target: T1, PLK1 PBD (PLK1 residue 345‐603) (Homo sapiens, UniProt P53350); assay: Isothermal titration calorimetry of EBNA2 heptapeptides with PLK1 PBD; assay type: binding; details: ITC200, 100 µM PBD in the cell titrated with 1 mM peptide, 25°C, triplicates
T1 construct: His6 (N); made in house; host or cells: E. coli Rosetta (DE3)
Method: PLK1 frequently binds to phosphorylated substrates that are primed by cellular kinases like Cyclin B/CDK1. These substrates share a consensus motif [Pro/Phe]‐[Φ/Pro]‐[Φ]‐[Thr/Gln/His/Met]‐Ser‐[pThr/pSer]‐[Pro/X] (Φ represents hydrophobic and X represents any residue) specific for binding to the Polo‐box binding domain (PBD) of PLK1 (Elia et al, [2003a]). […] Mutants involving the respective residues were tested for PLK1 binding by transfection and co‐precipitation. […] To specify the contribution of EBNA2 residue S379 phosphorylation, a heptapeptide (PNTSSPS) and phospho‐heptapeptide (PNTSpSPS) were tested for PBD (PLK1 residue 345‐603) binding by isothermal titration calorimetry (ITC). […] GST‐EBNA2 342–422 expressed and purified from bacterial extracts did hardly pulldown any PLK1 from cellular extracts. […] Also, as shown by transfection, EBNA2 S379A binding to PLK1 was severely impaired (Fig 2H). We conclude that EBNA2 residue S379 is a PLK1 docking site primed by Cyclin B/CDK1 phosphorylation.
Experiments were performed on a ITC200 instrument in triplicates and analyzed with the Malvern software. 100 µM PBD was provided in the cell and titrated with 1 mM concentration of wild type (PNTSSPS) or phosphopeptide (PNTSpSPS) with 25 times 1.5 µl injections at 25°C.

[2] = system: PLK1; assay: Kinase assay on EBNA2/PLK1 co-precipitates with endogenous PLK1; assay type: biochemical; details: Volasertib 40 nM, [γ-32P] ATP
Method: Monoclonal antibodies specific for His6 (2F12), EBNA2 (R3), glutathione S transferase (6G9), HA‐tag (3F10), BSA (3C5), and LMP1 (1G6) were provided by the antibody facility of the Helmholtz Center Munich. Commercial providers were as follows: GAPDH (Mab374; Merck Millipore), Flag (M2; Sigma‐Aldrich), PLK1 (ab17056; Abcam), GFP (7.1 and 13.1; Roche), and a p300‐specific serum (C20; Santa Cruz). For immunoprecipitations and Western blotting, the equivalent of 1 × 10^7 cells was lysed in 500 µl of lysis buffer (1% NP‐40, 10 mM Tris–HCl pH 7.4, 3% glycerol, 150 mM NaCl, 1 mM EDTA) supplemented with cOmplete protease inhibitor and PhoStop phosphatase inhibitor (Roche) incubated for 30 min at 4°C with constant rolling and for 30 min on ice. The lysate was cleared by centrifugation (16,000 g, 15 min). 1 µg of purified antibodies or 100 µl of hybridoma supernatants was coupled to Protein A or G beads and added to the cleared lysates, incubated for 2 h at 4°C, and washed with lysis buffer, and the protein was eluted with Laemmeli buffer. For GST‐pulldown, antibody‐coated beads were replaced by GST fusion protein‐coated beads. 20 µg protein of total cell lysates or 5 × 10^6 cell equivalents of one immunoprecipitation were loaded per lane. Signals on Western blots were detected by enhanced chemiluminescence (GE Healthcare) and exposed to films or Fusion FX (Vilber Lourmat). […]

[3] = target: polo-like kinase 1 (PLK1) (UniProt P53350); assay: GST pull-down from cell extract; details: reference: wild type, Cyclin B/CDK1 treated; sites S379
[4] = target: PLK1 polo-box domain (PBD), PLK1 residue 345-603 (UniProt P53350); assay: ITC; ITC200; 100 µM PBD in the cell titrated with 1 mM peptide, 25 injections of 1.5 µl, 25°C, triplicates
[5] = target: GST-EBNA2 446-474 double-mutant S457A/T465V (Epstein-Barr virus (B95-8)) (UniProt P12978); assay: pull-down; GST-EBNA2 446-474 (wt or phosphorylation mutants) on beads as bait; cellular proteins from DG75 cells; Western blot with GST- and p300-specific antibodies, signals quantified and normalized to wt

Question: Which “PBD binding by ITC” value [1] does the source give for “PNTSSPS [unmodified heptapeptide of EBNA2 covering residue S379]” here?
Answer: The value was “no interaction was detected”.

Question: `CC[C@@H]1C(=O)N(C)c2cnc(Nc3ccc(C(=O)N[C@H]4CC[C@H](N5CCN(CC6CC6)CC5)CC4)cc3OC)nc2N1C(C)C` [Volasertib] was tested. Which “phosphorylation of EBNA2 wt and candidate phosphorylation mutants in immunoprecipitates” value ([2]; EBNA2 mutants expressed in DG75 B cells, endogenous PLK1 trapped in precipitates) did it give?
Answer: Its value is “prevented phosphorylation of all EBNA2 proteins”.

Question: And the “EBNA2 phosphorylation in co-precipitates of EBNA2 and endogenous PLK1” value ([2]; co-precipitates from DG75 Dox HA-EBNA2 cells, 30 min, 37°C)?
Answer: Its value is “prevented”.

Question: For “EBNA2 (EBV nuclear antigen 2) 342-422 (from UniProt P12978) S379A, Cyclin B/CDK1 treated”, which “binding against the reference” value [3] is on record?
Answer: The value was “lost”.

Question: How did the stoichiometry N [4] turn out when EBNA2 phospho-heptapeptide PNTSpSPS was run?
Answer: The stoichiometry N was 1.

Question: For “histone acetylase and co-activator p300, endogenous, Q09472 1-2414”, which fold p300 binding relative to wt [5] is on record?
Answer: The fold p300 binding relative to wt was 8 fold and 9 fold.

Question: For `C[C@@H](O)[C@H](NC(=O)[C@H](CC(N)=O)NC(=O)[C@@H]1CCCN1)C(=O)N[C@@H](CO)C(=O)N[C@@H](COP(=O)(O)O)C(=O)N1CCC[C@H]1C(=O)N[C@@H](CO)C(=O)O` [PNTSpSPS] (H-PNTS[pS]PS-OH), which Kd ([1]; 25 x 1.5 µl injections, read-out: dissociation constant KD) is on record?
Answer: Its Kd is 8.19 µM.
